Earlier results in PubChem BioAssay AID1259409 (Chemical Carcinogenesis Research Information System (CCRIS), 2018).

System: rodent chemically induced tumor inhibition, incidence and multiplicity
Test: CCRIS tumor inhibitor studies

Row | Structure (SMILES) | outcome (Carcinogen: DIETHYLNITROSAMINE, 55-18-5, Dose [Inhibitor]: 0, 50 MG/KG 1/WK FOR 5 WK ADMINISTERED 4 HR POST EACH CARCINOGEN DOSE (STUDY DURATION: 6 MO), Route [Inhibitor]: INTRAPERITONEAL, Species: RAT, Strain/Sex: BD6/FEMALE, Target Tissue: Type of Lesion: ESOPHAGUS: TUMOR, Dose [Carcinogen]: 80 MG/KG BW 1/WK FOR 5 WK, Promoter: NONE USED) | tumour outcome (control, treated, inhibition, significance) (Carcinogen: DIETHYLNITROSAMINE, 55-18-5, Dose [Inhibitor]: 0, 50 MG/KG 1/WK FOR 5 WK ADMINISTERED 4 HR POST EACH CARCINOGEN DOSE (STUDY DURATION: 6 MO), Route [Inhibitor]: INTRAPERITONEAL, Species: RAT, Strain/Sex: BD6/FEMALE, Target Tissue: Type of Lesion: LIVER: TUMOR, Dose [Carcinogen]: 80 MG/KG BW 1/WK FOR 5 WK, Promoter: NONE USED) | tumour outcome (control, treated, inhibition, significance) (Carcinogen: DIETHYLNITROSAMINE, 55-18-5, Dose [Inhibitor]: 0, 50 MG/KG 1/WK FOR 5 WK ADMINISTERED 4 HR POST EACH CARCINOGEN TREATMENT (STUDY DURATION: 6 MO), Route [Inhibitor]: INTRAPERITONEAL, Species: RAT, Strain/Sex: BD6/FEMALE, Target Tissue: Type of Lesion: ESOPHAGUS: TUMOR, Dose [Carcinogen]: 80 MG/KG BW 1/WK FOR 5 WK, Promoter: NONE USED) | tumour outcome (control, treated, inhibition, significance) (Carcinogen: DIETHYLNITROSAMINE, 55-18-5, Dose [Inhibitor]: 0, 50 MG/KG 1/WK FOR 5 WK ADMINISTERED 4 HR POST EACH CARCINOGEN TREATMENT (STUDY DURATION: 6 MO), Route [Inhibitor]: INTRAPERITONEAL, Species: RAT, Strain/Sex: BD6/FEMALE, Target Tissue: Type of Lesion: LIVER: TUMOR, Dose [Carcinogen]: 80 MG/KG BW 1/WK FOR 5 WK, Promoter: NONE USED) | tumour outcome (control, treated, inhibition, significance) (Carcinogen: DIETHYLNITROSAMINE, 55-18-5, Dose [Inhibitor]: 0, 50 MG/KG 1/WK FOR 5 WK ADMINISTERED 24 HR POST EACH CARCINOGEN TREATMENT (STUDY DURATION: 6 MO), Route [Inhibitor]: INTRAPERITONEAL, Species: RAT, Strain/Sex: BD6/FEMALE, Target Tissue: Type of Lesion: LIVER: TUMOR, Dose [Carcinogen]: 80 MG/KG BW 1/WK FOR 5 WK, Promoter: NONE USED) | tumour outcome (control, treated, inhibition, significance) (Carcinogen: DIETHYLNITROSAMINE, 55-18-5, Dose [Inhibitor]: 0, 50 MG/KG 1/WK FOR 5 WK ADMINISTERED 24 HR POST EACH CARCINOGEN TREATMENT(STUDY DURATION: 6 MO), Route [Inhibitor]: INTRAPERITONEAL, Species: RAT, Strain/Sex: BD6/FEMALE, Target Tissue: Type of Lesion: ESOPHAGUS: TUMOR, Dose [Carcinogen]: 80 MG/KG BW 1/WK FOR 5 WK, Promoter: NONE USED) | tumour outcome (control, treated, inhibition, significance) (Carcinogen: N-NITROSOBIS(2-OXOPROPYL)AMINE [60599-38-4], Dose [Inhibitor]: 200 PPM FOR 16 WK BEGINNING 1 WK POST CHOLECYSTODUOODENOSTOMY AND LIGATION OF DISTAL END OF COMMON DUCT (STUDY DURATION:, Route [Inhibitor]: ORAL, Species: HAMSTER, Strain/Sex: SYRIAN/FEMALE, Target Tissue: Type of Lesion: EXTRAHEPATIC BILE DUCT: ADENOCARCINOMA, Dose [Carcinogen]: 10 MG/KG BW 1X/WK FOR 10 WK BEGINNING 1 WK POST CHOLECYSTODUODENOSTOMY AND LIGATION OF DISTAL END OF COMMON DUCT (STUDY, Promoter: NONE) | tumour outcome (control, treated, inhibition, significance) (Carcinogen: N-NITROSOBIS(2-OXOPROPYL)AMINE [60599-38-4], Dose [Inhibitor]: 200 PPM FOR 16 WK BEGINNING 1 WK POST CHOLECYSTODUOODENOSTOMY AND LIGATION OF DISTAL END OF COMMON DUCT (STUDY DURATION:, Route [Inhibitor]: ORAL, Species: HAMSTER, Strain/Sex: SYRIAN/FEMALE, Target Tissue: Type of Lesion: GALL BLADDER: ADENOCARCINOMA, Dose [Carcinogen]: 10 MG/KG BW 1X/WK FOR 10 WK BEGINNING 1 WK POST CHOLECYSTODUOODENOSTOMY AND LIGATION OF DISTAL END OF COMMON DUCT (STUDY, Promoter: NONE) | tumour outcome (control, treated, inhibition, significance) (Carcinogen: N-NITROSOBIS(2-OXOPROPYL)AMINE [60599-38-4], Dose [Inhibitor]: 200 PPM FOR 16 WK BEGINNING 1 WK POST CHOLECYSTODUOODENOSTOMY AND LIGATION OF DISTAL END OF COMMON DUCT (STUDY DURATION:, Route [Inhibitor]: ORAL, Species: HAMSTER, Strain/Sex: SYRIAN/FEMALE, Target Tissue: Type of Lesion: INTRAHEPATIC BILE DUCT: ADENOCARCINOMA, Dose [Carcinogen]: 10 MG/KG BW 1X/WK FOR 10 WK BEGINNING 1 WK POST CHOLECYSTODUODENOSTOMY AND LIGATION OF DISTAL END OF COMMON DUCT (STUDY, Promoter: NONE)
1 | CCN(CC)C(=S)S | 6%, 77, -1183%, p<0.001 | 44%, 77%, -75%, not significant | 14%, 94%, -571%, p<0.001 | 52%, 44%, 15%, not significant | 52%, 32%, 38%, not significant | 14%, 4%, 71%, not significant | – | – | –
2 | CCS(=O)(=O)Nc1ncc(C(F)(F)F)cc1NC(=O)C1CCCCC1 | – | – | – | – | – | – | 14/26 (54%), 2/15 (13%), 76%, p<0.05 | 18/26 (69%), 3/15 (20%), 71%, p<0.01 | 14/26 (54%), 3/15 (20%), 63%, p<0.05
